According to paper PMC11433283, “Sulfated Aeruginosins from Lake Kinneret: Microcystis Bloom, Isolation, Structure Elucidation, and Biological Activity” (Marine Drugs, 2024):

Target: T1, serine protease trypsin (Bos taurus, UniProt P00760)
T1 construct: purchased Sigma-Aldrich T1426
T1 sequence (P00760 24-246): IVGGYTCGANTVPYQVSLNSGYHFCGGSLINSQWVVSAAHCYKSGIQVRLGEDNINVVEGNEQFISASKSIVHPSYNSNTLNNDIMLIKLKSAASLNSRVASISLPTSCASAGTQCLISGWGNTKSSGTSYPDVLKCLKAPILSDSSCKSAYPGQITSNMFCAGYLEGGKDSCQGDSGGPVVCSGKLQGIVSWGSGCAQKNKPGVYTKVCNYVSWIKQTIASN
Experiment: Trypsin inhibition (protease inhibition assay, BAPNA substrate)
Format: biochemical
Settings: for IC50: Tris buffer (50 mM Tris-HCl, 100 mM NaCl, 1 mM CaCl2, pH 7.5), 37 °C, 5 min pre-incubation, absorbance 405 nm, kinetic over 10 min; for IC50 values for trypsin compared with those of aeruginosins KT608A and KT608B: comparison with literature values of KT608A and KT608B [19]
Method: The samples for biological assays were dissolved in ethanol at a concentration of 1 mg/mL and further diluted with Tris buffer to the desired concentrations. The samples were tested for inhibition of trypsin (Cat# T1426, Sigma-Aldrich, St. Louis, MO, USA). The assay was performed in a Tris buffer (50 mM Tris-HCl, 100 mM NaCl, and 1 mM CaCl2 at pH 7.5). Benzoyl-L-arginine-p-nitroanilide hydrochloride (BAPNA Cat# 03,310 Chem-Impex Int’l Inc., Wood Dale, IL, USA), the trypsin substrate was dissolved at 1 mg/mL in 1:9 EtOH/buffer. The enzyme was dissolved in a buffer at 1 mg/mL. To each well were added 100 µL of buffer, 10 µL of enzyme, and 10 µL of sample. The plate was placed in the spectrophotometer at 37 °C. After 5 min, 100 µL of substrate solution was added to each well, and the plate was placed in the spectrophotometer for the kinetic measurement of the absorbance intensity over 10 min at a wavelength of 405 nm.

Row | Compound | Inhibition of trypsin (inactive at tested concentration) (at a concentration of 1.7 mM, BAPNA substrate, pH 7.5, 37 °C, 405 nm) | IC50 (BAPNA substrate) [nM] | IC50 values for trypsin compared with those of aeruginosins KT608A and KT608B
1 | 6-Cl-Hpla-7-sulfate-2-Ile-Choi-amide [Aeruginosin KT575] | inactive |  | 
2 | N=C(N)NCCCCNC(=O)[C@@H]1C[C@@H]2CC[C@@H](OS(=O)(=O)O)C[C@@H]2N1C(=O)[C@@H](Cc1ccccc1)NC(=O)[C@@H](O)Cc1ccc(O)cc1 [Aeruginosin KT688, L-Hpla-D-Phe-L-Choi-6-sulfate-agmatine] |  | 2380 | comparable with those of aeruginosins KT608A and KT608B
3 | N=C(N)NCCCCNC(=O)[C@@H]1C[C@@H]2CC[C@@H](OS(=O)(=O)O)C[C@@H]2N1C(=O)[C@H](CCc1ccc(O)cc1)NC(=O)[C@@H](O)Cc1ccc(O)cc1 [Aeruginosin KT718, L-Hpla-L-Hty-L-Choi-6-sulfate-Agm] |  | 1430 | comparable with those of aeruginosins KT608A and KT608B
